Literature values in US6517822B1, “Formulations and methods for straightening hair” (priority 1998, dated 2003).

Legend:
[1] = molarity of 0.1

Structure (SMILES)	tumor finding from oral exposure (animal studies)	electrical conductivity [1]	solute ionized at equilibrium (0.01 mole in a liter of water at room temperature)	acetic acid ionized (0.1 mol, final volume 1 liter) [%]
CC(N)=O [Acetamide]	liver tumors	–	–	–
CC(=O)O [acetic acid]	–	4.67 reciprocal ohms (mho)	about 4%	1.3
